Laboratory results: US20030203819A1, “Synergistically acting herbicidal mixtures” (priority 1998, published 2003)
Read-outs that look alike come from different tables or passages of the source.

Experiments:
Assay type in all cases: in vivo
Cyperus iria [1] = assay: Herbicidal action in the field (post-emergence treatment); settings: benthiocarb 3000 g/ha a.s.
From the text: (§1) The mixtures according to the invention were applied pre- or post-emergence (foliar treatment). The herbicidal compounds of component B were applied in the formulation in which they are present as commercially available product.
(§2) Some of the experiments were greenhouse experiments and some were field trials on mini plots (on a site with sandy loam (pH 6.2 to 7.0) or sandy clay (pH 5.0 to 6.7) as the soil).
(§3) The harmful plants differed with regard to size and developmental state; on average, they were 5 to 20 cm long, depending on the growth habit.
(§4) The herbicidally active compounds of components A) and B) were applied in succession or jointly, in the latter case in some cases as a tank mix and in some cases as a readymix, in the form of emulsions, aqueous solutions or suspensions, the vehicle being water ([…]). In the case of the field trials, application was effected with the aid of a mobile plot sprayer.
(§5) The test period extended over 3 to 8 weeks, and the stands were also observed at later points in time.
(§6) Damage by the herbicidal compositions was evaluated with reference to a scale of 0% to 100% in comparison with untreated control plots. 0 means no damage and 100 means complete destruction of the plants.
(§7) In these examples, the value E at which only an additive effect of the individual active ingredients is to be expected was calculated by the method of S. R. Colby (Calculating synergistic and antagonistic responses of herbicide combinations, Weeds 15, 20 pp (1967).

Echinochloa crus-galli [2] = assay: Herbicidal action in the greenhouse (pre-emergence treatment)
From the text: as §1, §2, §3, §4, §5, §6, §7

Digitaria sanguinalis [3] = assay: as above
From the text: as §1, §2, §3, §4, §5, §6, §7

Setaria viridis [4] = assay: as above
From the text: as §1, §2, §3, §4, §5, §6, §7

Ipomoea ssp. = assay: Herbicidal action in the greenhouse (post-emergence treatment)
From the text: as §1, §2, §3, §4, §5, §6, §7

Veronica ssp. = assay: as above
From the text: as §1, §2, §3, §4, §5, §6, §7

Zea mays = assay: Phytotoxicity to crop plant in the greenhouse (post-emergence treatment); settings: Table 84, S-Metolachlor 125 g/ha a.s.
From the text: as §1, §2, §4, §5, §6, §7

Cyperus iria [5] = assay: Herbicidal action in the greenhouse (pre-emergence treatment); settings: Ia.3 31.2 g/ha a.s.
From the text: as §1, §2, §3, §4, §5, §6, §7

Amaranthus retroflexus [6] = assay: as above; settings: Ia.3 31.2 g/ha a.s.
From the text: as §1, §2, §3, §4, §5, §6, §7

Abutilon theophrasti [7] = assay: Herbicidal action in the greenhouse (post-emergence treatment); settings: Ia.3 15.6 g/ha a.s.
From the text: as §1, §2, §3, §4, §5, §6, §7

Amaranthus retroflexus [8] = assay: as above; settings: Amaranthus retroflexus, post-emergence
From the text: as §1, §2, §3, §4, §5, §6, §7

Setaria viridis [9] = assay: as above; settings: Ia.3 15.6 g/ha a.s.
From the text: as §1, §2, §3, §4, §5, §6, §7

Lolium perenne = assay: Herbicidal action in the field (post-emergence treatment); settings: Ia.3 75 g/ha a.s.
From the text: as §1, §2, §3, §4, §5, §6, §7

Chenopodium album = assay: as above; settings: Ia.3 50 g/ha a.s.
From the text: as §1, §2, §3, §4, §5, §6, §7

Cyperus species = assay: as above
From the text: as §1, §2, §3, §4, §5, §6, §7

[10] = tested on: Ipomoea purpurea var. diversifolia; assay: as above
From the text: as §1, §2, §3, §4, §5, §6, §7

Abutilon theophrasti [11] = assay: as above
From the text: as §1, §2, §3, §4, §5, §6, §7

Bidens pilosa = assay: as above
From the text: as §1, §2, §3, §4, §5, §6, §7

Geranium carolinianum = assay: as above; settings: Ia.3 150 g/ha a.s.
From the text: as §1, §2, §3, §4, §5, §6, §7

Ipomoea acuminata = assay: as above
From the text: as §1, §2, §3, §4, §5, §6, §7

Stellaria media = assay: as above
From the text: as §1, §2, §3, §4, §5, §6, §7

Phalaris spec. = assay: as above; settings: Ia.3 75 g/ha a.s.
From the text: as §1, §2, §3, §4, §5, §6, §7

Echinochloa crus-galli [12] = assay: as above; settings: Ia.3 75 g/ha a.s.
From the text: as §1, §2, §3, §4, §5, §6, §7

Digitaria adscendens = assay: as above
From the text: as §1, §2, §3, §4, §5, §6, §7

Brachiaria plantaginea = assay: as above; settings: Ia.3 75 g/ha a.s.
From the text: as §1, §2, §3, §4, §5, §6, §7

Digitaria sanguinalis [13] = assay: as above; settings: Ia.3 50 g/ha a.s.
From the text: as §1, §2, §3, §4, §5, §6, §7

Setaria viridis [14] = assay: as above; settings: Ia.3 100 g/ha a.s.
From the text: as §1, §2, §3, §4, §5, §6, §7

Alopecurus myosuroides = assay: as above
From the text: as §1, §2, §3, §4, §5, §6, §7

Sorghum bicolor = assay: as above; settings: Ia.3 (title: Ia.33) 75 g/ha a.s. (Table 68)
From the text: as §1, §2, §3, §4, §5, §6, §7

Galium aparine = assay: as above
From the text: as §1, §2, §3, §4, §5, §6, §7

Richardia brasiliensis = assay: as above; settings: Ia.3 75 g/ha a.s.
From the text: as §1, §2, §3, §4, §5, §6, §7

Anthemis mixta = assay: as above; settings: Ia.3 75 g/ha a.s.
From the text: as §1, §2, §3, §4, §5, §6, §7

Setaria faberi = assay: as above
From the text: as §1, §2, §3, §4, §5, §6, §7

Triticum aestivum = assay: Phytotoxicity to crop plant in the greenhouse (post-emergence treatment); settings: Table 83, Ia.52 62.5 g/ha a.s.
From the text: as §1, §2, §4, §5, §6, §7

With `CCN(CC)C(=O)SCc1ccc(Cl)cc1` [benthiocarb] the Damage (Cyperus iria [1]) was 50%.
`CCc1cccc(C)c1N(C(=O)CCl)[C@@H](C)COC` [S-Metolachlor, S-metolachlor, reference compound] showed a Damage (Echinochloa crus-galli [2]; S-Metolachlor 62.5 g/ha a.s.) of 65%, a Damage (Digitaria sanguinalis [3]; S-Metolachor 125 g/ha a.s.) of 50% and a Damage (Setaria viridis [4]; S-Metolachlor 62.5 g/ha a.s.) of 70%. For the same compound, the Damage (Ipomoea ssp.; S-Metolachlor 62.5 g/ha a.s.) was 0%, the Damage (Veronica ssp.; S-Metolachlor 125 g/ha a.s.) was 0% and the “Phytotoxicity (%)” value (Zea mays) was 0%.
Work on `Cn1ncc(C(=O)c2ccc(S(C)(=O)=O)c(C3=NOCC3)c2Cl)c1O` [Ia.3, 4-[2-chloro-3-(4,5-dihydroisoxazol-3-yl)-4-methylsulfonylbenzoyl]-1-methyl-5-hydroxy-1H-pyrazole] yielded a Damage (Cyperus iria [5]) of 50%, a Damage (Echinochloa crus-galli [2]; Ia.3 62.5 g/ha a.s.) of 60% and a Damage (Amaranthus retroflexus [6]) of 40%. For the same compound, the Damage (Digitaria sanguinalis [3]; Ia.3 62.5 g/ha a.s. (Table 40)) was 60%, the Damage (Digitaria sanguinalis [3]; Ia.3 62.5 g/ha a.s. (Table 47)) was 60% and the Damage (Setaria viridis [4]; Ia.3 15.6 g/ha a.s.) was 20%. For the same compound, the Damage (Ipomoea ssp.; Ia.3 31.2 g/ha a.s. (Table 27)) was 75%, the Damage (Ipomoea ssp.; Ia.3 31.2 g/ha a.s. (Table 74)) was 75% and the Damage (Abutilon theophrasti [7]) was 70%. For the same compound, the Damage (Veronica ssp.; Ia.3 31.2 g/ha a.s.) was 80%, the pest or weed control at 15.6 g/ha (Amaranthus retroflexus [8]; read-out: Damage, Ia.3 15.6 g/ha a.s. (Table 10)) was 80% and the pest or weed control at 15.6 g/ha (Amaranthus retroflexus [8]; read-out: Damage, Ia.3 15.6 g/ha a.s. (Table 25)) was 55%. For the same compound, the Damage (Setaria viridis [9]) was 80%, the Damage (Lolium perenne) was 10% and the Damage (Chenopodium album) was 92%. For the same compound, the Damage (Cyperus species; Ia.3 75 g/ha a.s. (Table 70)) was 5%, the Damage (Cyperus species; Ia.3 75 g/ha a.s. (Table 71)) was 0% and the Damage ([10]; Ia.3 75 g/ha a.s. (Table 16)) was 93%. The Damage ([10]; Ia.3 75 g/ha a.s. (Table 65)) was 94%, the Damage (Abutilon theophrasti [11]; Ia.3 50 g/ha a.s. (Table 5)) was 85% and the Damage (Abutilon theophrasti [11]; Ia.3 75 g/ha a.s. (Table 66)) was 85%. For the same compound, the Damage (Bidens pilosa; Ia.3 75 g/ha a.s. (Table 13)) was 30%, the Damage (Bidens pilosa; Ia.3 75 g/ha a.s. (Table 58)) was 25% and the Damage (Bidens pilosa; Ia.3 75 g/ha a.s. (Table 69)) was 25%. For the same compound, the Damage (Geranium carolinianum) was 30%, the Damage (Ipomoea acuminata; Ia.3 75 g/ha a.s. (Table 15)) was 25% and the Damage (Ipomoea acuminata; Ia.3 75 g/ha a.s. (Table 29)) was 25%. For the same compound, the Damage (Ipomoea acuminata; Ia.3 75 g/ha a.s. (Table 35)) was 25%, the Damage (Ipomoea acuminata; Ia.3 75 g/ha a.s. (Table 76)) was 23% and the Damage (Stellaria media; Ia.3 75 g/ha a.s. (Table 14)) was 91%. For the same compound, the Damage (Stellaria media; Ia.3 75 g/ha a.s. (Table 63)) was 91%, the Damage (Phalaris spec.) was 20% and the Damage (Echinochloa crus-galli [12]) was 98%. It also gave a Damage (Digitaria adscendens; Ia.3 75 g/ha a.s. (Table 33)) of 90%, a Damage (Digitaria adscendens; Ia.3 75 g/ha a.s. (Table 37)) of 90% and a Damage (Brachiaria plantaginea) of 96%. The “Damage (%)” value (Brachiaria plantaginea; Table 80, Brachiaria plantaginea, field, post-emergence) was 95%, the Damage (Digitaria sanguinalis [13]) was 57% and the Damage (Setaria viridis [14]) was 75%. It also gave a Damage (Alopecurus myosuroides; Ia.3 7.5 g/ha a.s. (Table 7)) of 10%, a Damage (Alopecurus myosuroides; Ia.3 75 g/ha a.s. (Table 8)) of 10% and a Damage (Sorghum bicolor) of 78%. For the same compound, the Damage (Galium aparine; Ia.3 75 g/ha a.s. (Table 9)) was 63%, the Damage (Galium aparine; Ia.3 75 g/ha a.s. (Table 54)) was 60% and the Damage (Galium aparine; Ia.3 75 g/ha a.s. (Table 64)) was 60%. It also gave a Damage (Richardia brasiliensis) of 70%, a Damage (Anthemis mixta) of 68% and a Damage (Setaria faberi; Ia.3 75 g/ha a.s. (Table 59)) of 99%. The Damage (Setaria faberi; Ia.3 75 g/ha a.s. (Table 67)) was 95%.
`Cc1cc(-c2c(S(C)(=O)=O)ccc(C(=O)c3cnn(C)c3O)c2Cl)on1` [Ia.52, 4-[2-chloro-3-(3-methyl-isoxazol-5-yl)-4-methylsulfonylbenzoyl]-1-methyl-5-hydroxy-1H-pyrazole] was tested, and the Damage (Veronica ssp.; Ia.52 15.6 g/ha a.s.) was 40%, the pest or weed control at 62.5 g/ha (Amaranthus retroflexus [8]; read-out: Damage, Ia.52 62.5 g/ha a.s.) was 75% and the “Phytotoxicity (%)” value (Triticum aestivum) was 0%.
